Tests used:
Format in all cases: tissue-based
[1] = target: T1, 5-hydroxytryptamine receptor 2C (Rattus norvegicus, UniProt P08909); assay: Compound was evaluated for affinity towards cerebral 5-hydroxytryptamine 2C receptor in homogenate of caudate putamen tissue from rat brain
T1 sequence (P08909 whole entry): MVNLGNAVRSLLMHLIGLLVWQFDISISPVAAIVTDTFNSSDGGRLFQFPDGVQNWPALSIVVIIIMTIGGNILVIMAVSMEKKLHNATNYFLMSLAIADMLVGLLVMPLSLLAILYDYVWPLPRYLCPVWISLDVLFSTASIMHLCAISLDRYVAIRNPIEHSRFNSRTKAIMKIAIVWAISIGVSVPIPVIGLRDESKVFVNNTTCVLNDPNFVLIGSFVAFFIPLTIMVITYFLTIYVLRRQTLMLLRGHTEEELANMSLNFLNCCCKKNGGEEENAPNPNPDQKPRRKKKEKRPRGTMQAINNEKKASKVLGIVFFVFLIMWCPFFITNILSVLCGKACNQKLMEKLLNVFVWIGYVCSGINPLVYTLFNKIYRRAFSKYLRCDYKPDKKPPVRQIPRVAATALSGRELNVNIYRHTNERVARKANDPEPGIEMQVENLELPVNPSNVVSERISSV

[2] = target: D(1A) dopamine receptor (Rattus norvegicus, UniProt P18901); assay: Compound was evaluated for affinity towards dopamine D1-like receptor in homogenate of caudate putamen tissue from rat brain
[3] = target: 5-hydroxytryptamine receptor 2A (Rattus norvegicus, UniProt P14842); assay: Compound was evaluated for affinity towards cerebral 5-hydroxytryptamine 2A receptor in homogenate of caudate putamen tissue from rat brain
5-hydroxytryptamine receptor 2A, sequence (P14842 whole entry): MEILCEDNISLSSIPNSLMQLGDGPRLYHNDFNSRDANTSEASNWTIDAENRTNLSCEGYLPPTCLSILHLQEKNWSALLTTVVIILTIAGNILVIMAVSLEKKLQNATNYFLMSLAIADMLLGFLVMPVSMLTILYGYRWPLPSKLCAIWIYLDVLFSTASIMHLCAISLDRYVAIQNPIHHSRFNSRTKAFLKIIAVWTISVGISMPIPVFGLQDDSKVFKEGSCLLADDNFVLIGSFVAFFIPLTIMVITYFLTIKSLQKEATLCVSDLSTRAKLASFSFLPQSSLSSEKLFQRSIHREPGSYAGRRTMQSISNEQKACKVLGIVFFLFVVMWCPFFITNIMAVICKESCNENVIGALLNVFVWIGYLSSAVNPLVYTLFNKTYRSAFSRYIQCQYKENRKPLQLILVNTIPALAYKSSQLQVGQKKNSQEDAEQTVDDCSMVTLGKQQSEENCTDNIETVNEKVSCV

D(1A) dopamine receptor, sequence (P18901 whole entry): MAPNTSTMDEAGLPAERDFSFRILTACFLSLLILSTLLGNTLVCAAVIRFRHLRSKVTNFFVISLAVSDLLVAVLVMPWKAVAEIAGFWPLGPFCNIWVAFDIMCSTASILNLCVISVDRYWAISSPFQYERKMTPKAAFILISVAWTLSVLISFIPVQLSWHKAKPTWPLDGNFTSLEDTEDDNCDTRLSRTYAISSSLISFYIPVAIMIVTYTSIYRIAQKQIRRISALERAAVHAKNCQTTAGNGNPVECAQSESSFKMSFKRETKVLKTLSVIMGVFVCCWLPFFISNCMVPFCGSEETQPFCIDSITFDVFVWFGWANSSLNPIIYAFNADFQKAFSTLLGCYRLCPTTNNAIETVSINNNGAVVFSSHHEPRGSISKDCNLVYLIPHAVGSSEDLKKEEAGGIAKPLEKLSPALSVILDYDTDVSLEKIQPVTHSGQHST

Row | SMILES | Ki [1] | Ki [2] | Ki [3]
1 | CN1CCc2cc(Cl)c(O)cc2C(c2ccccc2Br)C1 (stereo not drawn) | 11.8 nM | 0.7 nM | 22.1 nM
2 | CN1CCc2cc(Cl)c(O)cc2C(c2cccc(Br)c2)C1 (stereo not drawn) | 2.08 nM | 0.26 nM | 8.5 nM
3 | CN1CCc2cc(Cl)c(O)cc2[C@@H](c2ccccc2)C1 [SCH-23390] | 12.5 nM | – | 10.8 nM

From ChEMBL document CHEMBL1132883, “Cyclopentadienyltricarbonylrheniumbenzazepines: synthesis and binding affinity” (Bioorg Med Chem Lett, 2000)
